The source of these data is patent US12276654B2, “Chemical probe-dependent evaluation of protein activity and uses thereof” (The University of Chicago, priority 2017, dated 2025).

The target of the test is T1, FAAH (Homo sapiens, UniProt O00519).
T1 construct: endogenous in cells
T1 sequence (O00519 1-579): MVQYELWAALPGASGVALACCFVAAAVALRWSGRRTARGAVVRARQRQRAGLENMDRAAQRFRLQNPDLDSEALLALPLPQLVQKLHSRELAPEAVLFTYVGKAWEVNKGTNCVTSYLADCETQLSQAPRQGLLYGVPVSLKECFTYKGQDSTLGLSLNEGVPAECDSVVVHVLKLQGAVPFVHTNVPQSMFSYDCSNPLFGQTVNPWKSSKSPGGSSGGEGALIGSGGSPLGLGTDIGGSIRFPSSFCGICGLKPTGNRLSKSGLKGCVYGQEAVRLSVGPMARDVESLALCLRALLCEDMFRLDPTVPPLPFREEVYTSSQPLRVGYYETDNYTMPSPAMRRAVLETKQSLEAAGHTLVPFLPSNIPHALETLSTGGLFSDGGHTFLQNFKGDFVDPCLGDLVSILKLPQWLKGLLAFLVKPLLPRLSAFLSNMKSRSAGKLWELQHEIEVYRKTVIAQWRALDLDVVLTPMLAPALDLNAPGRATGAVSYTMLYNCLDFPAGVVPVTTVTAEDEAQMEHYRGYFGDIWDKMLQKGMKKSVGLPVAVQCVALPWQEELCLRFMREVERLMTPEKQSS
The test is described as follows: sADPL in situ target engagement in cancer cells, FAAH. The format is cell-based. To be noted: inhibitor prior to family-wide probe. As to the method: FIG. 23. In situ Target Engagement. Cancer cells were treated with DMSO as the control, with inhibitor prior to family wide probe to pre-block the active site, or with family-wide probe directly. Then sADPL workflow was applied to read out the CT difference. Serine hydrolase NCEH1 and its specific inhibitor JW480, or FAAH and inhibitor PF3845 were applied. The activity fold change was transformed from CT value with PCR amplification factor 1.91 determined by a standard qPCR curve and the activities were normalized to DMSO control at different cell lysate concentrations. […] To quantitatively measure the target engagement, different dose of JW480 was applied to either its target NCEH1, or off-target MGLL.
As another alternative detection method, sADPL is complementary with gel-based and MS-based detection methods. In this design, the inventors treat the live cell with several family-wide probes. The probes will label all the members of the protein families. Then one could get the labeled proteome after the cell lysis. […]
A summary of this assay is provided below: • 1. […] In the oligo design, the orthogonal forward primers were employed for different antibody to enable the multiplexing real time PCR readout. […]
Two amine modified oligos were conjugated to antibody and streptavidin, respectively. […] A Taqman probe was designed for real time PCR quantification. […]

Take `O=C(Nc1cccnc1)N1CCC(Cc2cccc(Oc3ccc(C(F)(F)F)cn3)c2)CC1` [PF3845]: the “FAAH activity in inhibitor competition group by sADPL, normalized to DMSO control” value is “bring the activities down to the levels of DMSO controls”.
